{"source": "patent US20100170777A1", "about": "“AGENT FOR DEGRADING A NUCLEIC ACID AND METHOD OF DEGRADING A NUCLEIC ACID” (Morinaga Milk Industry Co., Ltd., priority 2006, published 2010)", "key": {"E. coli chromosomal DNA [1]": {"test_system": "E. coli chromosomal DNA", "assay": "Influence of EMA plus visible light on isolated E. coli nucleic acid in vitro (agarose gel electrophoresis), chromosomal DNA band", "type": "biochemical", "details": "visible light 500 W halogen bulb 20 min", "method": "(§1) b 1 ml living bacterial suspension of 1.0×10^6 CFU/ml of E. coli/DH5α strain was subjected to centrifugation under a cool condition. After removal of the supernatant, the resulting pellet was added with 0.5 ml of 10 mM Tris-HCl buffer solution (pH 8.0) and further added with 10 μl of 1250U/ml protease K solution and 200 μl of 10% SDS solution, followed by overnight bacteriolysis at 50° C.\n(§2) Subsequently, each of the treated solution was divided into two equal volumes and dispensed into two 2 ml micro tubes, respectively. Each of them was added with 0.5 ml of saturated phenol solution, then gently mixed for 15 minutes, and then added with 0.5 ml of chloroform, followed by gently mixing for 5 minutes. After that, the mixture was centrifuged at 6,000×g at 4° C. for 10 minutes. An aqueous phase, an upper layer, was transferred into an another 2 ml microtube and then added with 70 μl of 3M sodium acetate (pH 5.2) and 1.21 ml of 99.5% cold ethanol, followed by gentle mixing. […] The concentration of the purified nucleic acid solution was determined based on the absorbance at UV260 nm (50 μg/ml of the nucleic acid was defined as OD=1, cell length=1 cm:OD260).\n(§3) The nucleic acid solution thus prepared was adjusted to 175 ng/μl with sterile water and 4 μl aliquot of the nucleic acid solution was then added to each of microtubes. […] The resulting image was recorded on the Polaroid film 667. […]"}, "[2]": {"test_system": "rRNA (16SrRNA and 23SrRNA)", "assay": "Influence of EMA plus visible light on isolated E. coli nucleic acid in vitro (agarose gel electrophoresis), rRNA bands", "type": "biochemical", "details": "visible light 500 W halogen bulb 20 min", "method": "as §1, §2, §3"}, "[3]": {"test_system": "chromosomal DNA in the nucleic acid existing inside of the living bacteria (E. coli)", "assay": "Influence of EMA plus visible light on nucleic acid inside living E. coli (in vivo; agarose gel electrophoresis), chromosomal DNA band", "type": "cell-based", "details": "living E. coli/DH5α suspension, visible light 500 W halogen bulb 20 min", "method": "(§4) EMA was dissolved in sterile water to prepare 1000 μg/ml EMA solution. The solution was filtrated for sterilization through a 0.2 μm filter (Minisart-plus; manufactured by Sartorius AG). The EMA solution was added so that the final concentration of EMA become 0 (no addition), 0.01, 0.1, 1, 10, and 100 μg/ml with respect to 1 ml of 1.0×10^6CFU/ml living bacterial suspension of E. coli/DH5α strain, followed by leaving standing at 4° C. for 1 hour.\n(§5) Subsequently, at a distance of 20 cm from the above living bacterial suspension on ice, the sample was irradiated for 20 minutes with visible light from a 500 W halogen bulb (FLOOD PRF 100V 500 W; Iwasaki Electric Co., Ltd., Tokyo). […]\n(§6) Each of the treated solution was divided into two equal volumes and dispensed into two 2 ml micro tubes, respectively. […] The concentration of the purified nucleic acid solution was determined based on the absorbance at UV260 nm (50 μg/ml of the nucleic acid was defined as OD=1, cell length=1 cm:OD260). The purity of the purified nucliec acid was calculated by dividing OD260 with OD280.\n(§7) Each of the nucleic acid solutions was prepared at 175 ng/μl and 4 μl of each was then electrophoresed on 0.7% agarose gel. λ-EcoT14 I digest (manufactured by Takara Bio Inc.) was used as a molecular weight marker. […] The resulting image was recorded on the Polaroid film 667. […]"}, "[4]": {"test_system": "rRNA (16SrRNA and 23SrRNA) of living bacteria (E. coli)", "assay": "Influence of EMA plus visible light on nucleic acid inside living E. coli (in vivo; agarose gel electrophoresis), rRNA bands", "type": "cell-based", "details": "EMA 10 μg/ml; living E. coli/DH5α suspension; visible light 500 W halogen bulb 20 min", "method": "as §4, §5, §6, §7"}, "E. coli/DH5α strain": {"test_system": "E. coli/DH5α strain", "assay": "Antibacterial effect of EMA on living bacteria (number of living bacterial cells)", "type": "cell-based", "details": "1.0×10^6 CFU/ml E. coli/DH5α, visible light 500 W halogen bulb 20 min", "method": "as §4, with “Ethidium monoazide (EMA) was” for “EMA was”, “filtrated” for “filtrated for sterilization”, “μm sterile” for “μm”, “100 μg/ml, respectively” for “100 μg/ml”, “by left” for “by leaving”, “1 hour under light interception.” for “1 hour.”\nSubsequently, at a distant of 20 cm from the above living bacterial suspension on ice, the sample was irradiated for 20 minutes with visible light from a 500 W halogen bulb (FLOOD PRF 100V 500 W; Iwasaki Electric Co., Ltd., Tokyo). The sample was subjected to centrifugation at 15,000×g at 4° C. for 10 minutes and the supernatant was then removed to eliminate a product generated by the reaction of water with the visible light irradiation product of EMA (hydroxyamino ethidium), which could not covalently bind to nucleic acid. The pellet was added with an equal amount of physiological saline solution and then serially diluted, followed by 24 hour incubation at 37° C. using an L-plate agar culture medium to determine the number of living bacterial cells."}, "E. coli chromosomal DNA [5]": {"test_system": "E. coli chromosomal DNA", "assay": "Electron microscopy of E. coli chromosomal DNA treated with EMA and visible light in vitro", "type": "biochemical", "details": "visible light 500 W halogen bulb 20 min", "method": "Nucleic acid was extracted in a manner similar to Example 1 as described above. The nucleic acid was then dissolved in 9 ml of sterile water. A nucleic acid solution thus prepared was gently loaded on the top of 32 ml sucrose density gradient (16 ml of 10% sucrose solution and 16 ml of 40% sucrose solution were used) and then subjected to ultracentrifugation at 26,000 rpm at 20° C. for 18 hours with a swing rotor (manufactured by Hitachi Koki Co., Ltd.: RPS-27-2). After the centrifugation, a small hole was opened in the bottom of the sucrose density gradient solution and then fractionated every 1 ml.\nAfter that, for each fraction, 3M sodiumacetate solution (pH 5.2) was added so as to be 10% (vol/vol). Then, 2-fold volume of 99.5% ethanol was added. Subsequently, the fraction was subjected to centrifugation at 15,000×g at 4° C. for 10 minutes to recover the pellet. Then, the pellet was washed with 70% ethanol and then dissolved in 100 μl of sterile water.\nAmong the samples obtained from the respective fraction solutions, a sample only containing a long chromosomal DNA with 48 kbp in agarose electrophoresis was further diluted with sterile water so as to be a DNA concentration of 175 ng/μl. Then 4 μl of each aqueous EMA solution (0, 0.02, 2, and 20 μg/ml) was added to 4 μl of the DNA solution and then left standing at 4° C. for 1 hour under light interception. […]"}}}
{"smiles": "CC[n+]1c(-c2ccccc2)c2cc(N=[N+]=[N-])ccc2c2ccc(N)cc21.[Cl-]", "note": "[EMA, 3-amino-8-azido-5-ethyl-6-phenyl-phenanthridinium chloride]", "values": [{"measurement": "intensity of the band originated from the chromosomal DNA of approximately 19,329 bps", "setting": "E. coli chromosomal DNA [1]; EMA 100 ng/ml to 1 μg/ml", "result": "gradually decreased"}, {"measurement": "intensity of the band originated from the chromosomal DNA of approximately 19,329 bps", "setting": "E. coli chromosomal DNA [1]; EMA 10 μg/ml", "result": "significantly disappeared"}, {"measurement": "band intensity of rRNA (16SrRNA and 23SrRNA)", "setting": "[2]; EMA 1 μg/ml", "result": "decreased"}, {"measurement": "band intensity of rRNA (16SrRNA and 23SrRNA)", "setting": "[2]; EMA 10 μg/ml or more", "result": "disappeared"}, {"measurement": "intensity of the band originated from the chromosomal DNA of approximately 19,329 bps", "setting": "[3]; EMA 10 μg/ml", "result": "gradually decreased"}, {"measurement": "intensity of the band originated from the chromosomal DNA of approximately 19,329 bps", "setting": "[3]; EMA 100 μg/ml", "result": "significantly disappeared"}, {"measurement": "band intensity of rRNA (16SrRNA and 23SrRNA)", "setting": "[4]", "result": "decreased"}, {"measurement": "decrease in number of living bacterial cells in comparison with the original number", "setting": "E. coli/DH5α strain; EMA 10 μg/ml", "result": "~10^2 CFU/ml"}, {"measurement": "decrease in number of living bacterial cells in comparison with the original number", "setting": "E. coli/DH5α strain; EMA 100 μg/ml", "result": "~10^5 CFU/ml"}, {"measurement": "effect of cleaving the chromosomal DNA (electron microscopy)", "setting": "E. coli chromosomal DNA [5]; EMA 0 to 0.01 μg/ml", "result": "not observed"}, {"measurement": "effect of cleaving the chromosomal DNA (electron microscopy)", "setting": "E. coli chromosomal DNA [5]; EMA 1 μg/ml or more", "result": "caused the cleaving phenomenon of chromosomal DNA"}]}
